Key:
[1] = test system: T1 generation of five transformation events (XP-2, XP-195, XP-325, XP-326, XP-552); design: species or system Glycine max; conditions: in vivo
Excerpt: At the V4 stage, 225 g a.i./ha of flazasulfuron was sprayed, and the tolerance of each transformant was observed.

[2] = test system: transgenic soybean event XP-2; assay: Field herbicide tolerance test, single herbicides (Example 7); conditions: for tolerance level of transgenic soybean event XP-2 to herbicides (in words): field test, Table 10 doses
Excerpt: (§1) A randomized block design was adopted with a total of 24 plots, each measuring 4 m×5 m. […] A 1 m interval was set between adjacent plots, with three replicates for each soybean type. At the V3 growth stage, the following treatments were applied: 1) no herbicide application; 2) respective applications of glyphosate at 1800 g a.i./ha, MCPA at 1848 g a.i./ha, mesotrione at 123.75 g a.i./ha, penoxsulam at 45 g a.i./ha, nicosulfuron at 102 g a.i./ha, pyrazosulfuron-ethyl at 56.25 g a.i./ha, and flazasulfuron at 112.5 g a.i./ha. Seedling emergence rate, plant height (measured from the tallest 10 plants), and herbicide damage symptoms (evaluated from the 10 plants with the mildest symptoms) were investigated at 1, 2, and 4 weeks post-application. Herbicide damage symptom grading was performed according to GB/f 17980.42-2000. The formula for calculating herbicide damage rate was as follows:
(§2) [formula] • (×-herbicide damage rate in percentage; N-number of plants with the same level of herbicide damage; S-herbicide damage level; T-total number of plants evaluated; M-highest level)∘

[3] = test system: non-transgenic soybean variety Wandou 28; assay: as above
Excerpt: as §1, §2

[4] = test system: T1 generation soybean transgenic events; assay: Flazasulfuron tolerance test on progeny of 54 single-copy events; design: dose or concentration left out as unconfirmed; conditions: […] g a.i./ha
[5] = test system: T1 generation soybean transgenic events; conditions: in vivo
[6] = test system: T0 transgenic soybean plants; assay: Greenhouse glyphosate spray screen of T0 transgenic events; assay type: in vivo, Glycine max; conditions: 1800 g a.i./ha sprayed at V4 stage; 546 T0 events
Excerpt: After hardening, 685 T0 generation transgenic events obtained from Example 1 were transplanted into natural soil in a greenhouse. Among them, 546 seedlings successfully survived in the greenhouse. When the T0 transgenic soybean plants reached the V4 vegetative stage, 1800 g a.i/ha ofglyphosate was sprayed.

[7] = XP-2, 2 weeks after spraying at V3, doses as Table 10 c1
[8] = XP-2, 4 weeks after spraying at V3, doses as Table 10 c1
[9] = Wandou 28, 1 week after spraying at V3, doses as Table 10 c1
[10] = Wandou 28, 2 weeks after spraying at V3, doses as Table 10 c1
[11] = Wandou 28, 4 weeks after spraying at V3, doses as Table 10 c1

Row | Structure (SMILES) | Height(cm) After 2 weeks [2, 7] [cm] | damage rate(%) After 2 weeks [2, 7] [%] | Height(cm) After 4 weeks [2, 8] [cm] | damage rate(%) After 4 weeks [2, 8] [%] | tolerance level of transgenic soybean event XP-2 to herbicides (in words) [2] | damage rate(%) After 1 week [3, 9] [%] | damage rate(%) After 2 weeks [3, 10] [%] | damage rate(%) After 4 weeks [3, 11] [%] | other results
1 | COc1cc(OC)nc(NC(=O)NS(=O)(=O)c2ncccc2C(F)(F)F)n1 [Flazasulfuron, flazasulfuron] |  |  |  |  |  |  |  |  | tolerance of each transformant (in words) [1]: XP-2 exhibited the highest tolerance; Height(cm) After 1 week ([2]; in vivo): 12.49 ± 0.35 cm; Height(cm) After 2 weeks ([2]; in vivo): 14.74 ± 0.2 cm; Height(cm) After 4 weeks ([2]; in vivo): 21.69 ± 0.32 cm; Seedling rate % ([2]; in vivo): 100%; damage rate(%) After 1 week ([2]; in vivo): 0%; damage rate(%) After 2 weeks ([2]; in vivo): 0%; damage rate(%) After 4 weeks ([2]; in vivo): 0%; Seedling rate % ([3]; in vivo): 0%; damage rate(%) After 1 week ([3]; in vivo): 100%; damage rate(%) After 2 weeks ([3]; in vivo): 100%; damage rate(%) After 4 weeks ([3]; in vivo): 100%; Number of Events: Plant death [4]: 0; Number of Events: No phytotoxicity [5]: 5; Number of Events: having phytotoxicity, New leaves getting yellow [5]: 49
2 | O=C(O)CNCP(=O)(O)O [Glyphosate, glyphosate] | 14.58 ± 0.24 | 0 | 21.6 ± 0.52 | 0 | high tolerance | 100 | 100 | 100 | Number of Events: Growth stunted, dwarfed plants (phytotoxicity) [6]: 327; Number of Events: Plant death [6]: 132; Number of Events: no phytotoxicity [6]: 87
3 | Cc1cc(Cl)ccc1OCC(=O)O [MCPA] | 14.7 ± 0.32 | 0 | 21.6 ± 0.52 | 0 | high tolerance | 100 | 100 | 100 | 
4 | CS(=O)(=O)c1ccc(C(=O)C2C(=O)CCCC2=O)c([N+](=O)[O-])c1 [Mesotrione, mesotrione] | 14.59 ± 0.24 | 0 | 21.63 ± 0.52 | 0 | high tolerance | 100 | 100 | 100 | 
5 | COc1cc(OC)nc(NC(=O)NS(=O)(=O)c2ncccc2C(=O)N(C)C)n1 [Nicosulfuron, nicosulfuron] | 14.73 ± 0.24 | 0 | 21.66 ± 0.53 | 0 | high tolerance | 100 | 100 | 100 | 
6 | COc1cnc(OC)n2nc(NS(=O)(=O)c3c(OCC(F)F)cccc3C(F)(F)F)nc12 [Penoxsulam, penoxsulam] |  |  |  |  |  |  |  |  | Height(cm) After 1 week ([2]; in vivo): 12.75 ± 1.01 cm; Height(cm) After 2 weeks ([2]; in vivo): 14.6 ± 0.24 cm; Height(cm) After 4 weeks ([2]; in vivo): 21.61 ± 0.52 cm; Seedling rate % ([2]; in vivo): 100%; damage rate(%) After 1 week ([2]; in vivo): 0%; damage rate(%) After 2 weeks ([2]; in vivo): 0%; damage rate(%) After 4 weeks ([2]; in vivo): 0%; Seedling rate % ([3]; in vivo): 0%; damage rate(%) After 1 week ([3]; in vivo): 100%; damage rate(%) After 2 weeks ([3]; in vivo): 100%; damage rate(%) After 4 weeks ([3]; in vivo): 100%
7 | CCOC(=O)c1cnn(C)c1S(=O)(=O)NC(=O)Nc1nc(OC)cc(OC)n1 [Pyrazosulfuron-ethyl, pyrazosulfuron-ethyl] | 14.6 ± 0.24 | 0 | 21.63 ± 0.52 | 0 | high tolerance | 100 | 100 | 100 | 

Reference: US20260226494A1 (HANGZHOU RUIFENG BIOSCIENCE CO., LTD., priority 2023, published 2026)
